Experimental data as given in patent US12428377B2, “Sodium-hydrogen exchanger 3 inhibitor compounds” (Eli Lilly and Company, priority 2019, dated 2025).
pIC50: −log10 of the molar value. Like-named read-outs stand apart in the source and are kept apart here.

Columns and labels:
[1] = system: Male Sprague-Dawley rats; test: Effect of Example 2 on sodium and phosphate absorption (urinary excretion after oral NaH2PO4 bolus); type: in vivo, rat; conditions: 4 h urine; for ED50: Rattus norvegicus, oral, NaH2PO4 bolus 690 mg/kg; for Ratio of Urinary-to-Dietary Phosphorus / Ratio of Urinary-to-Dietary Sodium: mean ± SEM
Procedure: Effect of Example 2 on Sodium and Phosphate Absorption Urinary sodium and phosphate excretion following an oral bolus dose of sodium phosphate is an indirect measure of sodium and phosphate absorption in the intestine. Male Sprague-Dawley rats at an age of about 7 weeks with body weights ranging from 195 to 221 g are randomized into groups based on equal mean body weights. Example 2 at 0.3 mg/mL (final dose 3 mg/kg dosed in 10 mL/kg volume) is formulated by adding 1% HEC to a glass vial containing a pre-weighed amount of compound, and then probe sonicating until it appears as a uniform suspension. […] The subsequent dosing solutions of Example 2 are prepared by serial dilutions with 1% HEC. NaH2PO4 at 34.5 mg/ml (final dose 690 mg/kg dosed in 20 ml/kg volume) is formulated by adding sterile water. On the day of the study, the animals are placed into clean cages without food but with access to water for a 4 h fast before the study. Rats are orally dosed with vehicle or varying doses of Example 2. 15 min later, animals are dosed with sterile water or NaH2PO4, then immediately transferred to metabolic cages. Urine samples are collected for 4 h. Net urine volume is recorded. Urinary sodium, creatinine, and phosphate are assessed using a clinical biochemistry analyzer. Values expressed as the ratio of urinary-to-dietary phosphorus or sodium are calculated and presented as mean±SEM. Curves are fitted with a 4-parameter logistic curve fitting tool GraphPod Prism 6 to calculate the ED50. For the purpose of curve fitting, the dose of Example 2 is artificially set to 0.00001 mg/kg in the software for the vehicle-alone group.

[2] = system: male spontaneously hypertensive (SHR) rats; test: Effect on blood pressure (telemetry) in spontaneously hypertensive rats; type: in vivo, rat; conditions: 0.15 mg/kg/day
Excerpt: Effect of Example 2 on Blood Pressure Male spontaneously hypertensive (SHR) rats weighing 250-300 g with age of 7 weeks are acclimated to a reversed light cycle (8:00 am lights off and 8:00 pm lights on) and fed regular chow and water ad libitum. Implantable telemetry devices (model TA11PA-C40, Data Sciences International) are implanted into the abdominal aorta. After recovering from surgery, rats are placed in individual cages in a quiet telemetry facility room for measuring blood pressure (mean arterial pressure, MAP) and heart rate (HR). Digitized pressure signals are acquired for 20 second every 5 min using DSI Dataquest IV 4.0 software. The 31 SHR rats are randomized by MAP into two groups and treated twice daily for 14 days with vehicle (n=15) (10% acacia, 0.05% antifoam in purified water) or 0.15 mg/kg/day Example 2. The first dose is given between 6:00 and 6:30 am (2 h prior to lights off) and the second dose is given between 4:00 and 4:30 pm. The daily food consumption and body weight gain are also monitored. MAP, HR, and body weight (BW) data are analyzed by repeated measures analysis of covariance (ANCOVA) with baseline as the covariate. Food consumption (FC) data are analyzed by repeated measures analysis of variance (ANOVA). The mean blood pressure across the time course of the study (days 1-14) for the group treated with 0.15 mg/kg/day of Example 2 is 4.83 mm Hg less than that of the control group with a p-value of 0.0007 (Table 1).

[3] = target: T1, SGLT1 (Homo sapiens, UniProt P13866); test: SGLT1 inhibition (selectivity)
T1 sequence (P13866 1-664): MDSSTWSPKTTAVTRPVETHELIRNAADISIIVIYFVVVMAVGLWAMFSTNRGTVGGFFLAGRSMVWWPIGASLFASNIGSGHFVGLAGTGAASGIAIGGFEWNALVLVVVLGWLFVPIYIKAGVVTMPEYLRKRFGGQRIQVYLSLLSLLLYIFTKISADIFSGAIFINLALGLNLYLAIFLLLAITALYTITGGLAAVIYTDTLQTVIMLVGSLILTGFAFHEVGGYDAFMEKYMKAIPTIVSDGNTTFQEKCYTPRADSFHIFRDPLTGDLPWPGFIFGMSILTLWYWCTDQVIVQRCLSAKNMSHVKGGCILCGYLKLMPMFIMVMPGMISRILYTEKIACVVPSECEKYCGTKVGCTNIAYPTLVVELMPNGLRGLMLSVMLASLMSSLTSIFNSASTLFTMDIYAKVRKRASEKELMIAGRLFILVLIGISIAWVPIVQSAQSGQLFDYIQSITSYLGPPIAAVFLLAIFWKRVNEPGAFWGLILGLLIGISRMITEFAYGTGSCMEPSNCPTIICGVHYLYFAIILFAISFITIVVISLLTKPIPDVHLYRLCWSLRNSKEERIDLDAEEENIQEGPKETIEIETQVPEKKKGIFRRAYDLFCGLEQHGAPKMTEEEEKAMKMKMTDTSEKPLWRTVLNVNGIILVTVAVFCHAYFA

## CN1Cc2c(Cl)cc(Cl)cc2[C@H](c2cccc(S(=O)(=O)NCCOCCOCCN/C(=N\C(N)=O)NCCCCN/C(=N/C(N)=O)NCCOCCOCCNS(=O)(=O)c3cccc([C@@H]4CN(C)Cc5c(Cl)cc(Cl)cc54)c3)c2)C1.Cl.Cl [Example 2, [[4-[[N′-Carbamoyl-N-[2-[2-[2-[[3-[(4S)-6,8-dichloro-2-methyl-3,4-dihydro-1H-isoquinolin-4-yl]phenyl]sulfonylamino]ethoxy]ethoxy]ethyl]carbamimidoyl]amino]butylamino]-[2-[2-[2-[[3-[(4S)-6,8-dichloro-2-methyl-3,4-dihydro-1H-isoquinolin-4-yl]phenyl]sulfonylamino]ethoxy]ethoxy]ethylamino]methylene]urea dihydrochloride]
[1]; read-out: ED50 on sodium excretion
  ED50: 0.058 mg/kg
[1]; read-out: ED50 on urinary phosphorus excretion
  ED50: 0.041 mg/kg
[1]; oral 0.001 mg/kg
  Ratio of Urinary-to-Dietary Phosphorus: 0.337 ± 0.017
  Ratio of Urinary-to-Dietary Sodium: 0.326 ± 0.042
[1]; oral 0.003 mg/kg
  Ratio of Urinary-to-Dietary Phosphorus: 0.350 ± 0.023
  Ratio of Urinary-to-Dietary Sodium: 0.413 ± 0.055
[1]; oral 0.01 mg/kg
  Ratio of Urinary-to-Dietary Phosphorus: 0.320 ± 0.042
  Ratio of Urinary-to-Dietary Sodium: 0.290 ± 0.06
[1]; oral 0.03 mg/kg
  Ratio of Urinary-to-Dietary Phosphorus: 0.268 ± 0.04
  Ratio of Urinary-to-Dietary Sodium: 0.276 ± 0.06
[1]; oral 0.1 mg/kg
  Ratio of Urinary-to-Dietary Phosphorus: 0.197 ± 0.045
  Ratio of Urinary-to-Dietary Sodium: 0.105 ± 0.042
[1]; oral 0.3 mg/kg
  Ratio of Urinary-to-Dietary Phosphorus: 0.168 ± 0.027
  Ratio of Urinary-to-Dietary Sodium: 0.039 ± 0.010
[1]; oral 1 mg/kg
  Ratio of Urinary-to-Dietary Phosphorus: 0.191 ± 0.039
  Ratio of Urinary-to-Dietary Sodium: 0.051 ± 0.027
[1]; oral 3 mg/kg
  Ratio of Urinary-to-Dietary Phosphorus: 0.144 ± 0.009
  Ratio of Urinary-to-Dietary Sodium: 0.022 ± 0.009
[2]; 14 days
  Effect on body weight (BW): No significant effect
  Effect on food consumption (FC): No significant effect
  Effect on heart rate (HR): No significant effect
[2]; days 1-14, less than control, p-value 0.0007
  Difference in mean blood pressure vs vehicle: 4.83 mm Hg
[2]; twice daily for 14 days
  Mean blood pressure over days 1-14: 153.33 mm Hg
[3]
  pIC50: 5.18
